Assay results from ChEMBL document CHEMBL1144685, “Naphthamides as novel and potent vascular endothelial growth factor receptor tyrosine kinase inhibitors: design, synthesis, and evaluation” (J Med Chem, 2008).

Experiments:
[1] = Clearance in Sprague-Dawley rat at 0.25 mg/kg, iv; type: ADME, organism-based; design: dose 0.25 mg/kg, route intravenous; conditions: in vivo
HUVEC [2] = assay: cells; conditions: Homo sapiens
Description: Inhibition of VEGF-induced proliferation of HUVEC cells

[3] = Mean retention time in Sprague-Dawley rat at 0.25 mg/kg, iv; type: ADME, organism-based; design: dose 0.25 mg/kg, route intravenous; conditions: in vivo
[4] = biological target: Vascular endothelial growth factor receptor 2 (Homo sapiens, UniProt P35968)
Vascular endothelial growth factor receptor 2, sequence (P35968 whole entry): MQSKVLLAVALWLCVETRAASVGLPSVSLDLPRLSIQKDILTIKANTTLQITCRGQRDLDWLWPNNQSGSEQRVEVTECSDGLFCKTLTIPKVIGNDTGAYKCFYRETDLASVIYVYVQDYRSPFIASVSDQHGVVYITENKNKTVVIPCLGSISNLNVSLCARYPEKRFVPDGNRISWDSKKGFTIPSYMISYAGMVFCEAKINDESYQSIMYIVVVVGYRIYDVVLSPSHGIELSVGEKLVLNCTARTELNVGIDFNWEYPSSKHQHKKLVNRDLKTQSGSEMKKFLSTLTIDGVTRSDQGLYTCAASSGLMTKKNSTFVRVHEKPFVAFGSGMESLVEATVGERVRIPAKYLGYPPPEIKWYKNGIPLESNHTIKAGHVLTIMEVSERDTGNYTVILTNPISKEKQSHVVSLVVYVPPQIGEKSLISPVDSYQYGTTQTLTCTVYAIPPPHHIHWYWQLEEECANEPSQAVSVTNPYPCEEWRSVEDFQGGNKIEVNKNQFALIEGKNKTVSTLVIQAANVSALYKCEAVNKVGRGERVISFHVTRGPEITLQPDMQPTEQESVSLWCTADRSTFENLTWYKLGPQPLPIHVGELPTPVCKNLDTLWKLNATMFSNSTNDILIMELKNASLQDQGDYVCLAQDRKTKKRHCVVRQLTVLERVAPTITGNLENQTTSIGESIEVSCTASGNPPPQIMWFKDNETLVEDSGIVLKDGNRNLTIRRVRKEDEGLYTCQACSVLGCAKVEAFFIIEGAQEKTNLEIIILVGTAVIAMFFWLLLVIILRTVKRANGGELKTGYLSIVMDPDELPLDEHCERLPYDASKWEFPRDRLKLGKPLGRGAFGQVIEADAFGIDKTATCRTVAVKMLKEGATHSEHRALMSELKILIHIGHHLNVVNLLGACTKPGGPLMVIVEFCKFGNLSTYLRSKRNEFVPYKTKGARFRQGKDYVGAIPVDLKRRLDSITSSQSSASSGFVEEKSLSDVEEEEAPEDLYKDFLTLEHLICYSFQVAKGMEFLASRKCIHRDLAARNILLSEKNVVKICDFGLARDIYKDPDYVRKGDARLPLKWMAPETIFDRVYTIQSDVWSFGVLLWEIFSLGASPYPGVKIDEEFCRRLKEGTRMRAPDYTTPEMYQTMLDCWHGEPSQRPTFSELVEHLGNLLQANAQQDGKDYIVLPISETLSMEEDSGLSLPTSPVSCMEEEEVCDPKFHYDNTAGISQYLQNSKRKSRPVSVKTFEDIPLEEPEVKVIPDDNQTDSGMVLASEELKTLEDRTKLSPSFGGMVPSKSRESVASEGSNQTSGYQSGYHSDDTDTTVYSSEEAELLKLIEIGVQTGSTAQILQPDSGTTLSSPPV
Description: Inhibition of KDR by HTRF assay

[5] = Half life in Sprague-Dawley rat at 0.25 mg/kg, iv; type: ADME, organism-based; design: dose 0.25 mg/kg, route intravenous; conditions: in vivo
[6] = Intrinsic clearance in human liver microsomes; type: ADME, Microsome
[7] = Cmax in Sprague-Dawley rat at 2 mg/kg; type: ADME, organism-based; design: dose 2 mg/kg; conditions: in vivo
HUVEC [8] = assay: cells; conditions: Homo sapiens; remark: listed apart in the source
Description: Inhibition of bFGF-induced proliferation of HUVEC cells

Cytochrome P450 2D6 = Cytochrome P450 2D6 (Homo sapiens, UniProt P10635)
Cytochrome P450 2D6, sequence (P10635 whole entry): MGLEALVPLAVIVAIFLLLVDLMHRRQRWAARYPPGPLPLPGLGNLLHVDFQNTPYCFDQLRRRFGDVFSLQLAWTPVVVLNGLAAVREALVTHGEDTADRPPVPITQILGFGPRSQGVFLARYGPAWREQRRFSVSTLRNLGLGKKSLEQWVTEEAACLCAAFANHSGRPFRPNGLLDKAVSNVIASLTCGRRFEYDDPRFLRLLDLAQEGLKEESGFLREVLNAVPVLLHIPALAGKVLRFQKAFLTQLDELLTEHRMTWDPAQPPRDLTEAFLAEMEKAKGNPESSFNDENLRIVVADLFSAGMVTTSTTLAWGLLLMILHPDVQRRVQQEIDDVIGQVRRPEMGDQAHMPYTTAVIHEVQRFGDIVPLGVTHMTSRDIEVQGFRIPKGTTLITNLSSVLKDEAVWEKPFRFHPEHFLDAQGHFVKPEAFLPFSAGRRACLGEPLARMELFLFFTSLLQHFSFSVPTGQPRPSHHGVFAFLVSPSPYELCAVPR

[9] = Volume of distribution at steady state in Sprague-Dawley rat at 0.25 mg/kg, iv; type: ADME, organism-based; design: dose 0.25 mg/kg, route intravenous; conditions: in vivo, read-out: Vdss
[10] = Intrinsic clearance in rat liver microsomes; type: ADME, Microsome
[11] = AUC (0 to 24 hrs) in Sprague-Dawley rat at 2 mg/kg; type: ADME, organism-based; design: time < 24 hr, dose 2 mg/kg; conditions: plasma
[12] = Oral bioavailability in Sprague-Dawley rat at 2 mg/kg; type: ADME, organism-based; conditions: in vivo
Cytochrome P450 3A4 = Cytochrome P450 3A4 (Homo sapiens, UniProt P08684)
Cytochrome P450 3A4, sequence (P08684 whole entry): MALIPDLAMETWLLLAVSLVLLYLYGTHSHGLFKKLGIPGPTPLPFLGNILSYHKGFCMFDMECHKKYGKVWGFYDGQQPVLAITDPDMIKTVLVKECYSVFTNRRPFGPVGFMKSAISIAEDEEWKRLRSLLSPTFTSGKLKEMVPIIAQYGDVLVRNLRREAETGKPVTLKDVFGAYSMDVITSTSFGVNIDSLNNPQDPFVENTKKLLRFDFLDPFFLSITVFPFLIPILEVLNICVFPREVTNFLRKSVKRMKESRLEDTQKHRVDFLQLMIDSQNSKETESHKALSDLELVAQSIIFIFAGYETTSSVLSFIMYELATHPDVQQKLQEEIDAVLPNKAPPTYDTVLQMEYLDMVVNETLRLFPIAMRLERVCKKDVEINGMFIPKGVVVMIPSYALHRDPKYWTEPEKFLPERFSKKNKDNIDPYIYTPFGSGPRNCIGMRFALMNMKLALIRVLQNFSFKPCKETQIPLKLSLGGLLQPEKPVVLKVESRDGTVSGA

[13] = AUC (0 to 24 hrs) in Sprague-Dawley rat at 2 mg/kg, po; type: ADME, organism-based; design: time < 24 hr, dose 2 mg/kg, route oral; conditions: plasma
[14] = Volume of distribution at steady state in Sprague-Dawley rat at 1 mg/kg, iv; type: ADME, organism-based; design: dose 1 mg/kg, route intravenous; conditions: in vivo, read-out: Vdss
[15] = Mean retention time in Sprague-Dawley rat at 1 mg/kg, iv; type: ADME, organism-based; design: dose 1 mg/kg, route intravenous; conditions: in vivo
[16] = Clearance in Sprague-Dawley rat at 1 mg/kg, iv; type: ADME, organism-based; design: dose 1 mg/kg, route intravenous; conditions: in vivo
[17] = Half life in Sprague-Dawley rat at 1 mg/kg, iv; type: ADME, organism-based; design: dose 1 mg/kg, route intravenous; conditions: in vivo
[18] = Cmax in Sprague-Dawley rat at 2 mg/kg, po; type: ADME, organism-based; design: dose 2 mg/kg, route oral; conditions: in vivo

clearance [1] [mL/min/kg]	MRT [3] [h]	IC50 [4] [nM]	half-life [5] [h]	microsomal CLint [6] [µL/min/mg]	Cmax [7] [ng/mL]	IC50 (Cytochrome P450 2D6) [nM]	Vd [9] [L/kg]	microsomal CLint [10] [µL/min/mg]	AUC(0-t) at 24 h [11] [ng·h/mL]	bioavailability [12] [%]	IC50 (Cytochrome P450 3A4) [nM]	AUC(0-t) at 24 h [13] [ng·h/mL]	Vd [14] [L/kg]	MRT [15] [h]	clearance [16] [mL/min/kg]	half-life [17] [h]	Cmax [18] [ng/mL]	Compound	IC50 (HUVEC [2]) [nM]	IC50 (HUVEC [8]) [nM]
1.67	22	0.3	17	30	610	> 50000	2.4	30	6010	50	> 50000	–	–	–	–	–	–	COc1cc2nccc(Oc3ccc4c(C(=O)Nc5ccc(Cl)cc5)cccc4c3F)c2cc1OC	2	280
–	–	0.8	–	80	–	> 50000	–	90	–	45	13000	1240	3.1	7.8	6.67	6.1	200	COc1cc2nccc(Oc3ccc4c(C(=O)Nc5ccccn5)cccc4c3)c2cc1OC	2	286
